Tests used:
Assay type in all cases: biochemical
[1] = target: T1, wt human TYK2, catalytic site (Homo sapiens, UniProt P29597); assay: HTRF KinEASE assay, TYK2; settings: 1 μM ATP; read-out: IC50, Activity Toward TYK2
T1 construct: wt human TYK2, catalytic site; purchased SignalChem
T1 sequence (P29597 897-1176 limits assumed): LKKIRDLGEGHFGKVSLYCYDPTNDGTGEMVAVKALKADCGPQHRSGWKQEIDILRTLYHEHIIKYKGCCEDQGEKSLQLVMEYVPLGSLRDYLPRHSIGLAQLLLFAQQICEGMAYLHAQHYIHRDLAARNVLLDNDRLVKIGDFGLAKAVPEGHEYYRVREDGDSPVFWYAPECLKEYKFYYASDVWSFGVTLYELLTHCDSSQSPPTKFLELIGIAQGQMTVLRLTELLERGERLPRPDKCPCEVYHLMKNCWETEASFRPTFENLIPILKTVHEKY
Summary of the method: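 Kinase reaction run at room temperature for at least 30 min: 2 nM TYK2 with 1 μM ATP, or 1 nM JAK2 with 100 μM ATP, each with 1 μM biotin-TK substrate. Phosphorylation detected by HTRF (60 min antibody/XL665) and evaluated from emission ratios.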

[2] = target: T2, wt human JAK1, catalytic site (Homo sapiens, UniProt P23458); assay: HTRF KinEASE assay, JAK1; settings: 2.5 μM ATP; read-out: IC50, Activity Toward JAK1
T2 construct: wt human JAK1, catalytic site; purchased ThermoFisher
Summary of the method: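 Compounds in DMSO dilution were mixed with kinase, biotin-TK substrate and ATP and reacted for ≥30 min at room temperature. Detection reagents (antibody, streptavidin-XL665) were read 60 min later as HTRF, with emission ratios analysed per KinEASE protocol.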

[3] = target: T3, wt human JAK2, catalytic site (Homo sapiens, UniProt O60674); assay: HTRF KinEASE assay, JAK2; settings: assay format not given (Z'-LYTE or HTRF KinEASE); read-out: IC50, Activity Toward JAK2
T3 construct: wt human JAK2, catalytic site; purchased SignalChem
Description: Basic protocol for HTRF KinEASE assay (Cisbio/FRA) inhibitor studies involved two steps: • Enzymatic step: Addition of 4 μL of test compound in corresponding DMSO dilutions, 4 μL of kinase/substrate mixture, 2 μL of ATP into 384 well small volume plates. Incubation for at least 30 minutes at room temperature. • Detection step: Addition of 5 μL antibody and 5 μL streptavidin-XL665, read plate after 60 minutes. Data analysis of emission ratios according KinEASE assay protocol.
(§1) Kinase and assay components were adjusted to final concentrations according to kit protocol. For TYK2: 2 nM wt human TYK2, catalytic site (SignalChem/CAN), 1 μM HTRF KinEASE-TK Substrate-biotin, 1 μM ATP in 1× Kinase Buffer. For JAK1: 4 nM wt human JAK1, catalytic site (ThermoFisher/USA), 1 μM HTRF KinEASE-TK Substrate-biotin, 2.5 μM ATP in 1× Kinase Buffer. For JAK2: 1 nM wt human JAK2, catalytic site (SignalChem/CAN), 1 μM HTRF KinEASE-TK Substrate-biotin, 100 μM ATP in 1× Kinase Buffer.
as §1

T2 sequence (P23458 875-1153 limits assumed): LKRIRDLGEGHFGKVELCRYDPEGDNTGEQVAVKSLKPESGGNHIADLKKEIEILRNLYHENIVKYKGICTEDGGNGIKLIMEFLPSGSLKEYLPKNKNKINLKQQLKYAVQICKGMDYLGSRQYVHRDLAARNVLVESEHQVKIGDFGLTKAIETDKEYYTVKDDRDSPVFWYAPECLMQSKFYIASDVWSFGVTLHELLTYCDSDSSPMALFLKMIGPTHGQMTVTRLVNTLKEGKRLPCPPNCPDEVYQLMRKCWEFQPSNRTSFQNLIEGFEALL
T3 sequence (O60674 849-1124 limits assumed): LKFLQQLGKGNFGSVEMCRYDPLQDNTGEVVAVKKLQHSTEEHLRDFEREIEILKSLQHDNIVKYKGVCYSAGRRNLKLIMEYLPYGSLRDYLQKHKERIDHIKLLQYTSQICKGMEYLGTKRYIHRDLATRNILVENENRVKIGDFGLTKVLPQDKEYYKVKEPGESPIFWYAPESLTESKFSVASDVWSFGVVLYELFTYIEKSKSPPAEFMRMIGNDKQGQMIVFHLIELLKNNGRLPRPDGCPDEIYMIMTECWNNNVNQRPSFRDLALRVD

SMILES	IC50 [1]	IC50 [2]	IC50 [3]
NC(=O)c1nn(-c2c(Cl)cccc2Cl)nc1Nc1ccc(OC2CCNCC2)cc1 [Compound No. 120, 2-(2,6-dichlorophenyl)-5-((4-(piperidin-4-yloxy)phenyl)amino)-2H-1,2,3-triazole-4-carboxamide]	10 to 100 nM	10 to 100 nM	100 to 1000 nM
NC(=O)c1nn(-c2c(Cl)cccc2Cl)cc1Nc1ccc(-c2nncn2CC(F)(F)F)cc1 [compound 210, 1-(2,6-dichlorophenyl)-4-((4-(4-(2,2,2-trifluoroethyl)-4H-1,2,4-triazol-3-yl)phenyl)amino)-1H-pyrazole-3-carboxamide]	10 to 100 nM	100 to 1000 nM	100 to 1000 nM
NC(=O)c1nn(-c2c(F)ccc(F)c2Cl)nc1Nc1ccc(C(=O)N2CC[C@@H](F)C2)cc1 [compound 147, (R)-2-(2-chloro-3,6-difluorophenyl)-5-((4-(3-fluoropyrrolidine-1-carbonyl)phenyl)amino)-2H-1,2,3-triazole-4-carboxamide]	10 to 100 nM	< 10 nM	100 to 1000 nM
NC(=O)c1nn(-c2c(Cl)ccc(F)c2Cl)nc1Nc1ccc(C(=O)N2CCOCC2)cc1 [compound 138, 2-(2,6-dichloro-3-fluorophenyl)-5-((4-(morpholine-4-carbonyl)phenyl)amino)-2H-1,2,3-triazole-4-carboxamide]	10 to 100 nM	< 10 nM	100 to 1000 nM
NC(=O)c1nn(-c2c(Cl)ccc(F)c2Cl)nc1Nc1ccc(C(=O)N2CC[C@@H](F)C2)cc1 [compound 145, (R)-2-(2,6-dichloro-3-fluorophenyl)-5-((4-(3-fluoropyrrolidine-1-carbonyl)phenyl)amino)-2H-1,2,3-triazole-4-carboxamide]	10 to 100 nM	< 10 nM	100 to 1000 nM
NC(=O)c1nn(-c2c(Cl)ccc(F)c2F)nc1Nc1ccc(C(=O)N2CC[C@@H](F)C2)cc1 [compound 167, (R)-2-(6-chloro-2,3-difluorophenyl)-5-((4-(3-fluoropyrrolidine-1-carbonyl)phenyl)amino)-2H-1,2,3-triazole-4-carboxamide]	10 to 100 nM	10 to 100 nM	100 to 1000 nM
Cn1ncnc1-c1ccc(Nc2cn(-c3c(Cl)cccc3Cl)nc2C(N)=O)cc1 [compound 96, 1-(2,6-dichlorophenyl)-4-((4-(1-methyl-1H-1,2,4-triazol-5-yl)phenyl)amino)-1H-pyrazole-3-carboxamide]	10 to 100 nM	10 to 100 nM	100 to 1000 nM
CC(C)n1ncnc1-c1ccc(Nc2cn(-c3c(Cl)cccc3Cl)nc2C(N)=O)cc1 [compound 90, 1-(2,6-dichlorophenyl)-4-((4-(1-isopropyl-1H-1,2,4-triazol-5-yl)phenyl)amino)-1H-pyrazole-3-carboxamide]	10 to 100 nM	100 to 1000 nM	100 to 1000 nM
N#Cc1cccc(F)c1-n1nc(Nc2ccc(C(=O)N3CC[C@@H](F)C3)cc2)c(C(N)=O)n1 [compound 164, (R)-2-(2-cyano-6-fluorophenyl)-5-((4-(3-fluoropyrrolidine-1-carbonyl)phenyl)amino)-2H-1,2,3-triazole-4-carboxamide]	10 to 100 nM	10 to 100 nM	100 to 1000 nM
NC(=O)c1nn(-c2c(Cl)cccc2Cl)cc1Nc1ccc(C(=O)N2CCCC2)cc1 [compound 94, 1-(2,6-dichlorophenyl)-4-((4-(pyrrolidine-1-carbonyl)phenyl)amino)-1H-pyrazole-3-carboxamide]	10 to 100 nM	10 to 100 nM	100 to 1000 nM
Cn1cnnc1-c1ccc(Nc2nn(-c3c(Cl)cccc3Cl)nc2C(N)=O)cc1 [compound 117, 2-(2,6-dichlorophenyl)-5-((4-(4-methyl-4H-1,2,4-triazol-3-yl)phenyl)amino)-2H-1,2,3-triazole-4-carboxamide]	10 to 100 nM	10 to 100 nM	100 to 1000 nM
N=S1(=O)CCN(C(=O)c2ccc(Nc3nn(-c4c(Cl)cccc4Cl)nc3C(N)=O)cc2)CC1 [compound 169, 2-(2,6-dichlorophenyl)-5-((4-(1-imino-1-oxidothiomorpholine-4-carbonyl)phenyl)amino)-2H-1,2,3-triazole-4-carboxamide]	< 10 nM	< 10 nM	100 to 1000 nM

The next lines start with the values.

IC50 [1]	IC50 [2]	IC50 [3]	SMILES
< 10 nM	< 10 nM	100 to 1000 nM	CN1CCC(Oc2ccc(Nc3nn(-c4c(Cl)cccc4Cl)nc3C(N)=O)cc2)CC1 [compound 114, 2-(2,6-dichlorophenyl)-5-((4-((1-methylpiperidin-4-yl)oxy)phenyl)amino)-2H-1,2,3-triazole-4-carboxamide]
< 10 nM	10 to 100 nM	100 to 1000 nM	Cn1nnnc1-c1ccc(Nc2cn(-c3c(Cl)cccc3Cl)nc2C(N)=O)cc1 [compound 238, 1-(2,6-dichlorophenyl)-4-((4-(1-methyl-1H-tetrazol-5-yl)phenyl)amino)-1H-pyrazole-3-carboxamide]
< 10 nM	10 to 100 nM	100 to 1000 nM	NC(=O)c1nn(-c2c(Cl)cccc2Cl)nc1Nc1ccc(-c2nnc3n2CCCC3)cc1 [compound 109, 2-(2,6-Dichloro-phenyl)-5-[4-(5,6,7,8-tetrahydro-[1,2,4]triazolo[4,3-a]pyridin-3-yl)-phenylamino]-2H-[1,2,3]triazole-4-carboxylic acid amide]
< 10 nM	10 to 100 nM	100 to 1000 nM	N#Cc1cccc(Cl)c1-n1nc(Nc2ccc(C(=O)N3CC[C@@H](F)C3)cc2)c(C(N)=O)n1 [compound 162, (R)-2-(2-chloro-6-cyanophenyl)-5-((4-(3-fluoropyrrolidine-1-carbonyl)phenyl)amino)-2H-1,2,3-triazole-4-carboxamide]
< 10 nM	< 10 nM	100 to 1000 nM	NC(=O)c1nn(-c2c(Cl)cccc2Cl)nc1Nc1ccc(C(=O)N2CCS(=O)(=O)CC2)cc1 [compound 163, 2-(2,6-dichlorophenyl)-5-((4-(1,1-dioxidothiomorpholine-4-carbonyl)phenyl)amino)-2H-1,2,3-triazole-4-carboxamide]
< 10 nM	100 to 1000 nM	100 to 1000 nM	N#CC1CN(C(=O)c2ccc(Nc3nn(-c4c(Cl)cccc4Cl)nc3C(N)=O)cc2)C1 [compound 107, 5-[4-(3-Cyano-azetidine-1-carbonyl)-phenylamino]-2-(2,6-dichloro-phenyl)-2H-[1,2,3]triazole-4-carboxylic acid amide]
< 10 nM	< 10 nM	100 to 1000 nM	CN=S1(=O)CCN(C(=O)c2ccc(Nc3nn(-c4c(Cl)cccc4Cl)nc3C(N)=O)cc2)CC1 [compound 171, 2-(2,6-dichlorophenyl)-5-((4-(1-(methylimino)-1-oxidothiomorpholine-4-carbonyl)phenyl)amino)-2H-1,2,3-triazole-4-carboxamide]
< 10 nM	< 10 nM	100 to 1000 nM	NC(=O)c1nn(-c2c(Cl)cccc2Cl)cc1Nc1ccc(C(=O)N2CCS(=O)(=O)CC2)cc1 [compound 451, 1-(2,6-dichlorophenyl)-4-((4-(1,1-dioxidothiomorpholine-4-carbonyl)phenyl)amino)-1H-pyrazole-3-carboxamide]
< 10 nM	10 to 100 nM	100 to 1000 nM	N#Cc1cccc(Cl)c1-n1cc(Nc2ccc(C(=O)N3CCS(=O)(=O)CC3)cc2)c(C(N)=O)n1 [compound 457, 1-(2-chloro-6-cyanophenyl)-4-((4-(1,1-dioxidothiomorpholine-4-carbonyl)phenyl)amino)-1H-pyrazole-3-carboxamide]

From patent publication US20230373985A1 (Origenis Gmbh, priority 2020, published 2023)
